For one experiment, the target named is T1, RORγ-LBD (Homo sapiens, UniProt P51449).
T1 construct: made in house; host or cells: SF9 cells (baculovirus)
T1 sequence (P51449 269-508 limits assumed): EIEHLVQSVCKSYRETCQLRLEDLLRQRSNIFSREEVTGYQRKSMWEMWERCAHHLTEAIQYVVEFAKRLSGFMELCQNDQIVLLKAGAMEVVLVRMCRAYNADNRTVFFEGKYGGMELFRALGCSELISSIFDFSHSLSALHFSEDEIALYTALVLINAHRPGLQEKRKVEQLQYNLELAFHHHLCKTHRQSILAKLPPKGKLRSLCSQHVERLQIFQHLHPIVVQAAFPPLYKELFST
Description: RORγ-Ligand Binding Domain (LBD) TR-FRET Assay.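 On TR-FRET Assay Max Response: 665/615 nm ratio relative to signal without ursolic acid or compound set at 100.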 Type of experiment: biochemical. In short, it runs like this:
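This TR-FRET coactivator assay pairs baculovirus-expressed His-RORγ-LBD (~3 nM final) with biotin-SRC1 LXXLL peptide at 200 nM final in pH 7.0 Tris/KCl/EDTA/DTT/BSA buffer.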
(In general: TR-FRET usually uses a lanthanide donor and a delayed reading to cut background.)

The target in a further experiment is T2, Gal4-RORγ-LBD (Homo sapiens, UniProt P51449).
T2 construct: expressed in transfected cells; host or cells: HEK-293 cells (pcDNA3.1neo plasmid)
T2 sequence (P51449 269-508 limits assumed): T1 sequence (P51449 269-508 limits assumed)
Description: Gal4-RORγ Luciferase Reporter Assay in HEK-293T Cells. Type of experiment: cell-based. The note with it: HEK-293 cells. The procedure, abridged:
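Luminescence read-out (One-Glo, 10 min RT) after overnight compound exposure at 37 °C in HEK-293 cells carrying Gal4-RORγ-LBD plus a Gal4-luciferase reporter, in the presence of 2 μM ursolic acid. Max Response is the upper plateau from a 4-parameter logistic fit, normalized to untreated signal = 100.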

[1] abbreviates: luciferase reporter, with 2 μM ursolic acid.

Each structure is given as a SMILES string.

As usually defined, the EC50 is the concentration that produces a half-maximal response.

As to `CC(C)(C(=O)NC[C@H]1CN(S(=O)(=O)c2cccc(C(F)(F)F)c2)c2cc(-c3cccc(C(F)(F)F)n3)ccc2O1)C(F)(F)F` [Compound 30BY, (S)-3,3,3-trifluoro-2,2-dimethyl-N-((4-((3-(trifluoromethyl)-phenyl)sulfonyl)-6-(6-(trifluoro-methyl)pyridin-2-yl)-3,4-dihydro-2H-benzo[b][1,4]-oxazin-2-yl)methyl)propanamide], on RORγ-LBD, the EC50 is 500 to 5000 nM and the “TR-FRET Assay Max Response” value is reported as “*** (The symbol “***” indicates a value in the range of greater than 150 to 200)”. For the same molecule, on Gal4-RORγ-LBD (2 μM ursolic acid), the EC50 lay in the range of 500 to 5000 nM and the “Gal4-RORγ Assay Max Response” value was “* (The symbol “*” indicates a value in the range of 25 to 90)”.
For the molecule `O=C(O)CC[C@H]1CN(S(=O)(=O)c2cccc(C(F)(F)F)c2)c2cc(-c3cccc(C(F)(F)F)c3)ccc2O1` [Compound 2G, (S)-3-(6-(3-(trifluoromethyl)phenyl)-4-((3-(trifluoromethyl)phenyl)-sulfonyl)-3,4-dihydro-2H-benzo[b][1,4]oxazin-2-yl)propanoic acid], at RORγ-LBD, the EC50 was below 500 nM and the “TR-FRET Assay Max Response” value was “*** (The symbol “***” indicates a value in the range of greater than 150 to 200)”. Moreover, on Gal4-RORγ-LBD (setting [1]), the EC50 is below 500 nM and the “Gal4-RORγ Assay Max Response” value is listed as “*** (The symbol “***” indicates a value in the range of greater than 150 to 200)”.
Take `COc1cc(-c2ccc3c(c2)N(S(=O)(=O)c2cccc(C(F)(F)F)c2)C[C@H](CCC(=O)O)O3)ccn1` [Compound 4D, (S)-3-(6-(2-methoxypyridin-4-yl)-4-((3-(trifluoromethyl)-phenyl)sulfonyl)-3,4-dihydro-2H-benzo[b][1,4]oxazin-2-yl)propanoic acid]: on RORγ-LBD, the concentration for a half-maximal effect (EC50) is below 500 nM and the “TR-FRET Assay Max Response” value is on record as “*** (The symbol “***” indicates a value in the range of greater than 150 to 200)”. Also, at Gal4-RORγ-LBD (setting [1]), the EC50 was 500 to 5000 nM and the “Gal4-RORγ Assay Max Response” value is listed as “* (The symbol “*” indicates a value in the range of 25 to 90)”.
Turning to `O=C(NC[C@H]1CN(S(=O)(=O)c2cccc(C(F)(F)F)c2)c2cc(-c3cc(F)ccc3F)ccc2O1)C1(F)CC1` [Compound 30AR, (S)-N-((6-(2,5-difluorophenyl)-4-((3-(trifluoromethyl)phenyl)-sulfonyl)-3,4-dihydro-2H-benzo[b][1,4]oxazin-2-yl)-methyl)-1-fluorocyclopropane-1-carboxamide], at RORγ-LBD, the EC50 is below 500 nM and the “TR-FRET Assay Max Response” value is on record as “**** (The symbol “****” indicates a value greater than 200)”. Also, at Gal4-RORγ-LBD (setting [1]), the EC50 is below 500 nM and the “Gal4-RORγ Assay Max Response” value is “* (The symbol “*” indicates a value in the range of 25 to 90)”.
Regarding `Cc1cc(-c2ccc3c(c2)N(S(=O)(=O)c2cccc(C(F)(F)F)c2)C[C@H](CCC(=O)O)O3)nc(N(C)C)c1` [Compound 4AN, (S)-3-(6-(6-(dimethylamino)-4-methylpyridin-2-yl)-4-((3-(trifluoromethyl)phenyl)sul-fonyl)-3,4-dihydro-2H-benzo[b][1,4]oxazin-2-yl)propanoic acid], on RORγ-LBD, the EC50 was below 500 nM and the “TR-FRET Assay Max Response” value is “**** (The symbol “****” indicates a value greater than 200)”. Further, on Gal4-RORγ-LBD (setting [1]), the half-maximal effective concentration (EC50) was below 500 nM and the “Gal4-RORγ Assay Max Response” value is “** (The symbol “**” indicates a value in the range of greater than 90 to 150)”.
With `O=C(O)C1CCN(C(=O)CC[C@H]2CN(S(=O)(=O)c3cccc(C(F)(F)F)c3)c3cc(-c4cccc(F)c4F)cc(F)c3O2)CC1` [Compound 23I, (S)-1-(3-(6-(2,3-difluorophenyl)-8-fluoro-4-((3-(trifluoromethyl)phenyl)sulfonyl)-3,4-dihydro-2H-benzo[b][1,4]oxazin-2-yl)propanoyl)piperidine-4-carboxylic acid], at RORγ-LBD, the EC50 is below 500 nM and the “TR-FRET Assay Max Response” value was “**** (The symbol “****” indicates a value greater than 200)”. In addition, at Gal4-RORγ-LBD (setting [1]), the 50% effective concentration (EC50) is below 500 nM and the “Gal4-RORγ Assay Max Response” value is “** (The symbol “**” indicates a value in the range of greater than 90 to 150)”.
In the case of `C[C@@H](CC(=O)O)[C@H]1CN(S(=O)(=O)c2cccc(C(F)(F)F)c2)c2cc(-c3cc(F)cc(F)c3Cl)ccc2O1` [Compound 80C, (S)-3-((S)-6-(2-chloro-3,5-difluorophenyl)-4-((3-(trifluoromethyl)phenyl)sulfonyl)-3,4-dihydro-2H-benzo[b][1,4]-oxazin-2-yl)butanoic acid], on RORγ-LBD, the EC50 was below 500 nM and the “TR-FRET Assay Max Response” value is listed as “*** (The symbol “***” indicates a value in the range of greater than 150 to 200)”. On Gal4-RORγ-LBD (2 μM ursolic acid), the EC50 is below 500 nM and the “Gal4-RORγ Assay Max Response” value is given as “** (The symbol “**” indicates a value in the range of greater than 90 to 150)”.
Regarding `O=C(O)C1(C[C@H]2CN(S(=O)(=O)c3cccc(C4CC4)c3)c3cc(-c4cc(F)cc(OC(F)F)c4)ccc3O2)COC1` [Compound 51F, (S)-3-((4-((3-cyclopropyl-phenyl)sulfonyl)-6-(3-(difluoro-methoxy)-5-fluorophenyl)-3,4-dihydro-2H-benzo[b][1,4]oxazin-2-yl)methyl)oxetane-3-carboxylic acid], at RORγ-LBD, the concentration for a half-maximal effect (EC50) was below 500 nM and the “TR-FRET Assay Max Response” value is “*** (The symbol “***” indicates a value in the range of greater than 150 to 200)”. Further, on Gal4-RORγ-LBD (2 μM ursolic acid), the EC50 was below 500 nM and the “Gal4-RORγ Assay Max Response” value is recorded as “** (The symbol “**” indicates a value in the range of greater than 90 to 150)”.
For `O=C(CC1CC1)NC[C@H]1CN(S(=O)(=O)c2cccc(C(F)(F)F)c2)c2cc(-c3cc(F)ccc3F)ccc2O1` [Compound 30AB, (S)-2-cyclopropyl-N-((6-(2,5-difluorophenyl)-4-((3-(trifluoromethyl)phenyl)sulfonyl)-3,4-dihydro-2H-benzo[b][1,4]oxazin-2-yl)methyl)acetamide], at RORγ-LBD, the EC50 was below 500 nM and the “TR-FRET Assay Max Response” value is recorded as “**** (The symbol “****” indicates a value greater than 200)”. Also, on Gal4-RORγ-LBD (setting [1]), the EC50 was below 500 nM and the “Gal4-RORγ Assay Max Response” value is “* (The symbol “*” indicates a value in the range of 25 to 90)”.
Regarding `O=C(O)CC[C@H]1CN(S(=O)(=O)c2cccc(C(F)(F)F)c2)c2cc(-c3cccc(Cl)c3F)ccc2O1` [Compound 2R, (S)-3-(6-(3-chloro-2-fluorophenyl)-4-((3-(trifluoromethyl)phenyl)-sulfonyl)-3,4-dihydro-2H-benzo[b][1,4]oxazin-2-yl)propanoic acid], at RORγ-LBD, the EC50 was below 500 nM and the “TR-FRET Assay Max Response” value is “**** (The symbol “****” indicates a value greater than 200)”. For the same molecule, on Gal4-RORγ-LBD (setting [1]), the concentration giving a half-maximal response (EC50) was below 500 nM and the “Gal4-RORγ Assay Max Response” value was “*** (The symbol “***” indicates a value in the range of greater than 150 to 200)”.
Turning to `CC(C)(C[C@H]1CN(S(=O)(=O)c2cccc(C(F)(F)F)c2)c2cc(-c3cc(F)cc(OC(F)F)c3F)ccc2O1)C(=O)O` [Compound 32BG, (S)-3-(6-(3-(difluoromethoxy)-2,5-difluorophenyl)-4-((3-(trifluoromethyl)phenyl)sulfonyl)-3,4-dihydro-2H-benzo[b][1,4]-oxazin-2-yl)-2,2-dimethyl-propanoic acid], at RORγ-LBD, the EC50 is below 500 nM and the “TR-FRET Assay Max Response” value is given as “** (The symbol “**” indicates a value in the range of greater than 90 to 150)”. Besides, on Gal4-RORγ-LBD (2 μM ursolic acid), the EC50 was below 500 nM and the “Gal4-RORγ Assay Max Response” value was “** (The symbol “**” indicates a value in the range of greater than 90 to 150)”.
As for `CN(C)c1cccc(-c2ccc3c(c2)N(S(=O)(=O)c2cccc(C(F)(F)F)c2)C[C@H](CC(C)(C)C(=O)O)O3)n1` [Compound 32D, (S)-3-(6-(6-(dimethylamino)-pyridin-2-yl)-4-((3-(trifluoromethyl)phenyl)sulfonyl)-3,4-dihydro-2H-benzo[b][1,4]oxazin-2-yl)-2,2-dimethylpropanoic acid], on RORγ-LBD, the EC50 was below 500 nM and the “TR-FRET Assay Max Response” value is “**** (The symbol “****” indicates a value greater than 200)”. Further, on Gal4-RORγ-LBD (setting [1]), the concentration for a half-maximal effect (EC50) is below 500 nM and the “Gal4-RORγ Assay Max Response” value is “** (The symbol “**” indicates a value in the range of greater than 90 to 150)”.
Turning to `COc1cc(OC)cc(-c2ccc3c(c2)N(S(=O)(=O)c2cccc(C(F)(F)F)c2)C[C@H](CC(C)(C)C(=O)O)O3)c1` [Compound 32Q, (S)-3-(6-(3,5-dimethoxyphenyl)-4-((3-(trifluoromethyl)phenyl)-sulfonyl)-3,4-dihydro-2H-benzo[b][1,4]oxazin-2-yl)-2,2-dimethylpropanoic acid], on RORγ-LBD, the EC50 was below 500 nM and the “TR-FRET Assay Max Response” value is “**** (The symbol “****” indicates a value greater than 200)”. Further, on Gal4-RORγ-LBD (setting [1]), the EC50 is below 500 nM and the “Gal4-RORγ Assay Max Response” value is given as “** (The symbol “**” indicates a value in the range of greater than 90 to 150)”.
`Cn1ccc(C(=O)NC[C@H]2CN(S(=O)(=O)c3cccc(C(F)(F)F)c3)c3cc(-c4cc(F)ccc4F)ccc3O2)n1` [Compound 30AI, (S)-N-((6-(2,5-difluorophenyl)-4-((3-(trifluoromethyl)phenyl)-sulfonyl)-3,4-dihydro-2H-benzo[b][1,4]oxazin-2-yl)methyl)-1-methyl-1H-pyrazole-3-carboxamide]: at RORγ-LBD, the EC50 is below 500 nM and the “TR-FRET Assay Max Response” value is recorded as “*** (The symbol “***” indicates a value in the range of greater than 150 to 200)”. Besides, at Gal4-RORγ-LBD (setting [1]), the EC50 was below 500 nM and the “Gal4-RORγ Assay Max Response” value is recorded as “** (The symbol “**” indicates a value in the range of greater than 90 to 150)”.

Source of the values: patent publication US10611740B2, “Aryl dihydro-2H-benzo[b][1,4]oxazine sulfonamide and related compounds for use as agonists of RORγ and the treatment of disease” (Lycera Corporation, priority 2015, dated 2020).
